Experimental data: US4239778A, “Azaprostanoic acid analogs and their use as inhibitors of platelet aggregation” (priority 1978, dated 1980)
“Also recorded” adds a separate entry of the source. Where two headings read alike, the source gives them in different places.

Legend:
[1] = tested on: thromboxane synthetase; conditions: cited from earlier work
[2] = tested on: platelet aggregation; conditions: cited from earlier work
[3] = tested on: PGE2; conditions: cited from earlier work
[4] = tested on: cyclooxygenase; conditions: cited from earlier work
[5] = tested on: prostacyclin synthetase; conditions: cited from earlier work
[6] = tested on: mice; experiment: Observation of mice after 30 mg/kg 13-APA; format: in vivo, mouse; conditions: months after dose
Method: (§1) Swiss Webster mice (25 gm) maintained on a Purina diet were injected intraperitoneally with either 0.1 ml corn oil or 0.1 ml corn oil containing 13-azaprostanoic acid (13-APA) of Example 5. The dose of 13-APA employed was 30 mg/kg. One hour subsequent to injection, 0.05 ml of a sodium arachidonate solution was administered by rapid I.V. through the tail vein to both control and drug-treated mice. The arachidonate was dissolved in 90% saline and 10% ethanol (95%).

[7] = tested on: platelet rich plasma; experiment: Platelet aggregation with 500 μM arachidonic acid (Table IV); format: cell-based
Method: (§2) Platelet rich plasma was aggregated with 500 μM arachidonic acid and three minutes following arachidonate addition, aliquots of the plasma were drawn for TXB2 determinations.

[8] = tested on: thromboxane synthetase; experiment: TXB2 formation in response to added PGH2 in indomethacin-treated resuspended platelets (thromboxane synthetase); format: cell-based
Method: This possibility was examined by measuring the effect of 13-APA on TXB2 formation in response to added PGH2 (0.13 μg/ml). Platelets were isolated from EDTA-treated ([…]) PRP by centrifugation at 800 xg for 15 minutes. The platelet pellet was resuspended by gentle swirling in calcium-free Tyrode buffer (pH 7.4). […] Moreover, if it is assumed that TXA2 is the final mediator involved in prostaglandin activation, 13-APA must act to block the interaction of TXA2 with the platelet receptor.

[9] = tested on: platelet receptor; experiment: Platelet aggregation induced by direct agonist 9-epoxy CEE; format: cell-based; conditions: 3 μM 9-epoxy CEE
Text: Such inhibitory activity has not been previously reported for any compound which selectively blocks AA-induced aggregation.

[10] = tested on: platelet conversion of AA to thromboxane B2 (TXB2); experiment: TXB2 formation in platelet rich plasma aggregated with arachidonic acid (radioimmunoassay); format: cell-based
Method: as §2

[11] = tested on: platelets; experiment: PGH2-induced platelet aggregation (Table V); format: cell-based
[12] = tested on: Swiss Webster mice; format: in vivo, mouse; conditions: 30 mg/kg i.p.
Method: as §1

[13] = in vivo; cited from earlier work
[14] = tested on: platelet cAMP levels; conditions: cited from earlier work
[15] = 1 h before I.V. arachidonate (100 mg/kg), number of mice of 4
[16] = AA 500 μM + imidazole 100 μg/ml
[17] = AA 500 μM + imidazole 200 μg/ml

Question: Which results are given for `CCCCCC/C=C/C1C2CC(N=N2)C1C/C=C\CCCC(=O)O` (centres unmarked) [azo prostanoic acid analog]?
Answer: inhibition of thromboxane synthetase (in words) [1]: potent inhibitor of thromboxane synthetase; inhibition of thromboxane synthetase (in words) ([1]; listed as azo analog): competitive inhibitor of PGH2 binding to the thromboxane synthetase enzyme; also recorded: selectively inhibit thromboxane synthetase in a concentration dependent fashion; effect on platelet aggregation (in words) [2]: inhibitor of platelet aggregation induced by PGH2, arachidonic acid, or collagen, and of the second wave of ADP or epinephrine-induced aggregation; effect on platelet aggregation (in words) ([2]; listed as azo analog): suppressed the attendant aggregation induced by arachidonate in a parallel, concentration-dependent fashion; PGE2 formation (in words) [3]: increase in PGE2; inhibition of prostaglandin biosynthesis / cyclooxygenase (in words) [4]: cyclooxygenase enzyme was not affected; inhibition of prostacyclin synthetase (in words) [5]: inhibitory activity may also extend to prostacyclin synthetase

Question: What does the source list for `CCCCCCCN[C@H]1CCC[C@@H]1CCCCCCC(=O)O` [Example 13-APA, 13-azaprostanoic acid]?
Answer: ill effects / toxicity (in words) [6]: no ill effects are evident; inhibition of aggregation (in words) ([7]; 13-APA 50 μM): completely inhibits aggregation; % Aggregation ([7]; AA 500 μM + 13-APA 10 μM): 80%; % Aggregation ([7]; AA 500 μM + 13-APA 50 μM): 0%; platelet production of TXB2 (in words) ([8]; 13-APA 100 μM): no effect on platelet production of TXB2; TXB2 ([8]; PGH2 […] + 13-APA 10 μM): 50 ± 2 ng/mL; TXB2 ([8]; PGH2 […] + 13-APA 50 μM): 44 ± 2 ng/mL; TXB2 ([8]; PGH2 […] + 13-APA 100 μM): 40 ± 2 ng/mL; inhibition of aggregation induced by 9-epoxy CEE (in words) ([9]; 13-APA 100 μM): completely inhibited; inhibition at 10 µM ([9]; Platelet, 13-APA 10 μM): ~60%; TXB2 ([10]; AA 500 μM + 13-APA 10 μM): 1164 ± 25 ng/mL; TXB2 ([10]; AA 500 μM + 13-APA 50 μM): 750 ± 19 ng/mL; inhibition at 50 µM ([10]; Platelet, 0.05 h, 13-APA 50 μM, read-out: decrease of TXB2 formation): 36%; inhibition of PGH2-induced aggregation (in words) ([11]; 13-APA 10 μM): completely effective in inhibiting PGH2 -induced aggregation; % Aggregation ([11]; PGH2 […] + 13-APA 10 μM): 0%; % Aggregation ([11]; PGH2 […] + 13-APA 50 μM): 0%; % Aggregation ([11]; PGH2 […] + 13-APA 100 μM): 0%; Death [12, 15]: 0; Severe Respiratory Distress [12, 15]: 0; symptoms of thromboembolism (in words) ([12]; arachidonate 100 mg/kg I.V.): none of the symptoms of thromboembolism

Question: Which results are given for `CC(=O)Oc1ccccc1C(=O)O` [aspirin]?
Answer: bleeding times (in words) [13]: prolong bleeding times; inhibition of prostaglandin biosynthesis / cyclooxygenase (in words) [4]: inhibit prostaglandin biosynthesis by blocking the conversion of substrate fatty acids to endoperoxides

Question: Which “concentration necessary to achieve inhibition of thromboxane synthetase” value [1] does the source give for `c1c[nH]cn1` [imidazole] here?
Answer: Its value is 2 mM.

Question: And the “inhibition of thromboxane synthetase (in words)” value [1]?
Answer: Its value is “selectively inhibit thromboxane synthetase in a concentration dependent fashion”.

Question: What about the “inhibition of thromboxane synthetase (in words)” value ([1]; listed as Imidazole) of the same compound?
Answer: Its value is “selectively inhibits thromboxane synthetase”.

Question: And the “% Aggregation” value ([7]; AA 500 μM + imidazole 20 μg/ml)?
Answer: The value was 21%.

Question: And the “% Aggregation” value [7, 16]?
Answer: The value was 11%.

Question: And the “% Aggregation” value [7, 17]?
Answer: The value was 5%.

Question: What about the inhibition at 20 µg/mL ([7]; Platelet, read-out: inhibition of aggregation) of the same compound?
Answer: Its inhibition at 20 µg/mL is roughly 75%.

Question: What about the “effect on platelet aggregation (in words)” value [2] of the same compound?
Answer: The value was “erratic; also recorded: potentiate aggregation in washed platelets”.

Question: And the TXB2 ([8]; PGH2 […] + imidazole 20 μg/ml)?
Answer: The TXB2 was 26 ± 1 ng/mL.

Question: What about the TXB2 ([8]; PGH2 […] + imidazole 100 μg/ml) of the same compound?
Answer: Its TXB2 is 6 ± 1 ng/mL.

Question: What about the TXB2 ([8]; PGH2 […] + imidazole 200 μg/ml) of the same compound?
Answer: Its TXB2 is 3 ± 1 ng/mL.

Question: And the “thromboxane synthetase inhibition (in words)” value ([8]; imidazole 20-200 μg/ml)?
Answer: The value was “blocks thromboxane synthetase in a dose dependent manner”.

Question: What about the “changes in platelet cAMP levels (in words)” value [14] of the same compound?
Answer: Its value is “without inducing changes in platelet cAMP levels”.

Question: And the TXB2 ([10]; AA 500 μM + imidazole 20 μg/ml)?
Answer: Its TXB2 is 669 ± 33 ng/mL.

Question: What about the TXB2 [10, 16] of the same compound?
Answer: The TXB2 was 264 ± 7 ng/mL.

Question: What about the TXB2 [10, 17] of the same compound?
Answer: Its TXB2 is 138 ± 8 ng/mL.

Question: And the “TXB2 formation (in words)” value ([10]; imidazole 200 μg/ml)?
Answer: Its value is “substantial depression of TXB2 formation”.

Question: What about the “TXB2 levels versus control (in words)” value ([10]; imidazole decreased from 200 μg/ml to 20 μg/ml) of the same compound?
Answer: The value was “significantly lower than control”.

Question: And the “% Aggregation” value ([11]; PGH2 […] + imidazole 20 μg/ml)?
Answer: The value was 30%.

Question: What about the “% Aggregation” value ([11]; PGH2 […] + imidazole 100 μg/ml) of the same compound?
Answer: The value was 50%.

Question: And the “% Aggregation” value ([11]; PGH2 […] + imidazole 200 μg/ml)?
Answer: The value was 60%.
